Results: US20180153995A1, “USE OF ANTIMICROBIAL POLYMERS FOR RE-SENSITIZATION OF MICROORGANISMS UPON EMERGENCE OF RESISTANCE TO ANTI-MICROBIAL AGENTS” (Technion Research & Development Foundation Limited, priority 2008, published 2018)
Where two headings read alike, the source gives them in different places.

What was measured:
S. aureus 17314 = assay: Antibiotic MIC by microdilution with or without sub-MIC polymer; type: cell-based, Staphylococcus aureus; settings: S. aureus 17314
[1] = test system: E. coli N282 (L4 mutation); type: cell-based, Escherichia coli; settings: E. coli N282 L4 mutation
MRSA 15852 = type: cell-based, Staphylococcus aureus; settings: S. aureus 15852
Protocol: The fractionary inhibitory (FIC) concentration index for combinations of two antimicrobial agents was calculated as follows: FIC index=FICA+FICB=A/MICA+B/MICB where A and B are the MIC values of agent A and agent B in the combination, MICA and MICB are the MICs of agent A and agent B alone, and FICA and FICB are the FICs of agent A and agent B.
The FIC indexes were interpreted as follows: less than 0.5 indicates a clear re-sensitizing effect; from 0.5 to 4 indicates a marginal or null re-sensitizing effect; and over 4 indicates antagonism.

E. coli 16327 = assay: microbe, parasite or virus in culture; settings: for MIC, ½ + MIC OAK: with C12K(KNC10K)3NH2 (SEQ ID NO: 10) at ½ of its MIC; for MIC, ⅓ + MIC OAK: with C12K(KNC10K)3NH2 (SEQ ID NO: 10) at ⅓ of its MIC; for Antibiotic MIC in presence of C12K(NC8K)7NH2 (SEQ ID NO: 4), +½ MIC: polymer at ½ of its MIC; for Antibiotic MIC: E. coli 16327
Protocol: (§1) MICs were determined by microdilution susceptibility testing in 96-well plates (by Nunc) using inocula of 10^5 bacteria per ml. Cell populations were evaluated by optical density measurements at 620 nm and were calibrated against a set of standards. Hundred (100) μl of a bacterial suspension were added to 100 μl of culture medium (control) or to 100 μl of culture medium containing various polymer concentrations in 2-fold serial dilutions. Inhibition of proliferation was determined by optical density measurements at 620 nm after an incubation period of 24 hours at 37° C.
(§2) 100 μl of a bacterial suspension were added to 100 μl of culture medium (control) or to 100 μl of culture medium containing various antibiotic and C14(9-ene)KKNC12KNH2 (SEQ ID NO: 5) concentrations in 2-fold serial dilutions. Inhibition of proliferation was determined by optical density measurements at 620 nm after an incubation period of 24 hours at 37° C.

[2] = test system: E. coli AB301 (wild type); assay: Erythromycin MIC with or without sub-MIC polymer; type: cell-based, Escherichia coli
P. mirabilis 1285 [3] = type: cell-based, Proteus mirabilis; settings: no polymer (None), Table 12
Protocol: as §1, §2

P. aeruginosa 8732 = assay: Antibiotic MIC by microdilution with or without sub-MIC polymer; type: cell-based, Pseudomonas aeruginosa; settings: P. aeruginosa 8732
Protocol: as §1
Inhibition of proliferation was determined by optical density measurements at 620 nm after an incubation period of 24 hours at 37° C.

P. mirabilis 1285 [4] = type: cell-based, Proteus mirabilis
[5] = +¼ MIC (1.6 μM) C12K(KNC12K)2NH2
[6] = +¼ MIC (1.6 μM) C14(9-ene)KKNC12KNH2
[7] = +¼ MIC (1.6 μM) C16(9-ene)KKNC12KNH2
[8] = +½ MIC (3.12 μM) C12K(KNC12K)2NH2
[9] = +½ MIC (3.12 μM) C14(9-ene)KKNC12KNH2
[10] = +½ MIC (3.12 μM) C16(9-ene)KKNC12KNH2
[11] = +⅓ MIC (2.1 μM) C12K(KNC12K)2NH2
[12] = +⅓ MIC (2.1 μM) C14(9-ene)KKNC12KNH2
[13] = +⅓ MIC (2.1 μM) C16(9-ene)KKNC12KNH2

In the case of `CC[C@H]1OC(=O)[C@H](C)[C@@H](O[C@H]2C[C@@](C)(OC)[C@@H](O)[C@H](C)O2)[C@H](C)[C@@H](O[C@@H]2O[C@H](C)C[C@H](N(C)C)[C@H]2O)[C@](C)(O)C[C@@H](C)C(=O)[C@H](C)[C@@H](O)[C@]1(C)O` [Erythromycin, erythromycin], the “Antibiotic MIC” value (S. aureus 17314; [5]) is reported as 1 µg/mL, the “Antibiotic MIC” value (S. aureus 17314; +¼ MIC (1.6 μM) C12KKNC12KNH2) is reported as 1 µg/mL and the “Antibiotic MIC” value (S. aureus 17314; [6]) is reported as 1 µg/mL. For the same compound, the “Antibiotic MIC” value (S. aureus 17314; [7]) was 1 µg/mL, the “Antibiotic MIC” value (S. aureus 17314; [8]) was 0.5 to 1 µg/mL and the “Antibiotic MIC” value (S. aureus 17314; +½ MIC (3.12 μM) C12KKNC12KNH2) was 1 µg/mL. The “Antibiotic MIC” value (S. aureus 17314; [9]) was 1 µg/mL, the “Antibiotic MIC” value (S. aureus 17314; [10]) was 0.5 µg/mL and the “Antibiotic MIC” value (S. aureus 17314; [11]) was 0.5 to 1 µg/mL. The “Antibiotic MIC” value (S. aureus 17314; +⅓ MIC (2.1 μM) C12KKNC12KNH2) was 1 µg/mL, the “Antibiotic MIC” value (S. aureus 17314; [12]) was 1 µg/mL and the “Antibiotic MIC” value (S. aureus 17314; [13]) was 1 µg/mL. The “Antibiotic MIC” value (S. aureus 17314; no polymer (None), Table 9) was 1 µg/mL, the “Antibiotic MIC” value (S. aureus 17314; no polymer (None), Table 10) was 1 µg/mL and the “Antibiotic MIC” value (S. aureus 17314; no polymer (None), Table 11) was 1 µg/mL. The “Antibiotic MIC” value (S. aureus 17314; no polymer (None), Table 12) was 1 µg/mL, the “Antibiotic MIC” value ([1]; +¼ MIC C12K(NC8K)5NH2) was 512 µg/mL and the “Antibiotic MIC” value ([1]; +¼ MIC C12K(NC8K)7NH2) was 512 µg/mL. For the same compound, the “Antibiotic MIC” value ([1]; +½ MIC C12K(NC8K)5NH2) was 8 to 16 µg/mL, the “Antibiotic MIC” value ([1]; +⅓ MIC C12K(NC8K)7NH2) was 512 µg/mL and the “Antibiotic MIC” value ([1]; no OAK, Table 18) was 512 µg/mL. For the same compound, the “Antibiotic MIC” value ([1]; no OAK, Table 19) was 512 µg/mL, the “Antibiotic MIC” value (MRSA 15852; +¼ MIC (1.6 μM) C12(5-ene)KKNC12KNH2) was over 512 µg/mL and the “Antibiotic MIC” value (MRSA 15852; +¼ MIC (1.6 μM) C12KKNC12KNH2) was over 512 µg/mL. For the same compound, the “Antibiotic MIC” value (MRSA 15852; +½ MIC (3.12 μM) C12(5-ene)KKNC12KNH2) was over 512 µg/mL, the “Antibiotic MIC” value (MRSA 15852; +½ MIC (3.12 μM) C12KKNC12KNH2) was over 512 µg/mL and the “Antibiotic MIC” value (MRSA 15852; +⅓ MIC (2.1 μM) C12(5-ene)KKNC12KNH2) was over 512 µg/mL. The “Antibiotic MIC” value (MRSA 15852; +⅓ MIC (2.1 μM) C12KKNC12KNH2) was over 512 µg/mL, the “Antibiotic MIC” value (MRSA 15852; no polymer (None), Table 8) was over 512 µg/mL and the “Antibiotic MIC” value (MRSA 15852; no polymer (None), Table 11) was over 512 µg/mL. For the same compound, the “MIC, ½ + MIC OAK” value (E. coli 16327; E. coli U16327) was 4 to 8 µg/mL, the “MIC, ⅓ + MIC OAK” value (E. coli 16327; E. coli U16327) was 8 µg/mL and the “Antibiotic MIC in presence of C12K(NC8K)7NH2 (SEQ ID NO: 4), +½ MIC” value (from here on “Antibiotic MIC … (SEQ ID NO: 4), +½ MIC”) (E. coli 16327; E. coli U-16327) was 32 µg/mL. The “Antibiotic MIC” value ([2]; +¼ MIC C12K(NC8K)5NH2) was 32 µg/mL, the “Antibiotic MIC” value ([2]; +¼ MIC C12K(NC8K)7NH2) was 32 µg/mL and the “Antibiotic MIC” value ([2]; +½ MIC C12K(NC8K)5NH2) was 8 µg/mL. For the same compound, the “Antibiotic MIC” value ([2]; +½ MIC C12K(NC8K)7NH2) was 4 to 8 µg/mL, the “Antibiotic MIC” value ([2]; +⅓ MIC C12K(NC8K)5NH2) was 16 to 32 µg/mL and the “Antibiotic MIC” value ([2]; +⅓ MIC C12K(NC8K)7NH2) was 16 to 32 µg/mL.

With `CN(C)[C@@H]1C(O)=C(C(N)=O)C(=O)[C@@]2(O)C(O)=C3C(=O)c4c(O)cccc4[C@@](C)(O)[C@H]3C[C@@H]12` [Tetracycline, tetracycline] the “Antibiotic MIC” value (S. aureus 17314; [5]) was 0.25 µg/mL, the “Antibiotic MIC” value (S. aureus 17314; +¼ MIC (1.6 μM) C12KKNC12KNH2) was 0.25 to 0.5 µg/mL and the “Antibiotic MIC” value (S. aureus 17314; [6]) was 0.25 µg/mL. For the same compound, the “Antibiotic MIC” value (S. aureus 17314; [8]) was 0.25 µg/mL, the “Antibiotic MIC” value (S. aureus 17314; +½ MIC (3.12 μM) C12KKNC12KNH2) was 0.25 to 0.5 µg/mL and the “Antibiotic MIC” value (S. aureus 17314; [9]) was 0.25 µg/mL. The “Antibiotic MIC” value (S. aureus 17314; [11]) was 0.5 µg/mL, the “Antibiotic MIC” value (S. aureus 17314; +⅓ MIC (2.1 μM) C12KKNC12KNH2) was 0.25 to 0.5 µg/mL and the “Antibiotic MIC” value (S. aureus 17314; [12]) was 0.25 µg/mL. For the same compound, the “Antibiotic MIC” value (S. aureus 17314; no polymer (None), Table 9) was 0.25 µg/mL, the “Antibiotic MIC” value (S. aureus 17314; no polymer (None), Table 10) was 0.25 µg/mL and the “Antibiotic MIC” value (S. aureus 17314; no polymer (None), Table 11) was 0.25 to 0.5 µg/mL. The “Antibiotic MIC” value (S. aureus 17314; no polymer (None), Table 12) was 0.25 to 0.5 µg/mL, the “Antibiotic MIC” value (E. coli 16327; [9]) was 32 µg/mL and the “MIC, ½ + MIC OAK” value (E. coli 16327; E. coli U16327) was 64 µg/mL. For the same compound, the “Antibiotic MIC … (SEQ ID NO: 4), +½ MIC” value (E. coli 16327; E. coli U-16327) was 32 µg/mL.

gentamicin was tested, and the “Antibiotic MIC” value (P. mirabilis 1285 [3]) was 32 µg/mL, the “Antibiotic MIC” value (S. aureus 17314; [10]) was 64 µg/mL and the “Antibiotic MIC” value (P. aeruginosa 8732; [7]) was 4 µg/mL. For the same compound, the “Antibiotic MIC” value (P. aeruginosa 8732; [10]) was 4 µg/mL, the “Antibiotic MIC” value (P. aeruginosa 8732; [13]) was 4 µg/mL and the “Antibiotic MIC” value (P. aeruginosa 8732; no polymer (None), Table 10) was 4 µg/mL. For the same compound, the “Antibiotic MIC” value (P. mirabilis 1285 [4]; [5]) was 32 µg/mL, the “Antibiotic MIC” value (P. mirabilis 1285 [4]; [8]) was 32 µg/mL and the “Antibiotic MIC” value (P. mirabilis 1285 [4]; [11]) was 32 µg/mL. For the same compound, the “Antibiotic MIC” value (E. coli 16327; [5]) was 8 µg/mL, the “Antibiotic MIC” value (E. coli 16327; [6]) was 4 µg/mL and the “Antibiotic MIC” value (E. coli 16327; [7]) was 4 µg/mL. The “Antibiotic MIC” value (E. coli 16327; [8]) was 4 µg/mL, the “Antibiotic MIC” value (E. coli 16327; [9]) was 2 µg/mL and the “Antibiotic MIC” value (E. coli 16327; [10]) was 4 µg/mL. For the same compound, the “Antibiotic MIC” value (E. coli 16327; [11]) was 8 µg/mL, the “Antibiotic MIC” value (E. coli 16327; [12]) was 4 µg/mL and the “Antibiotic MIC” value (E. coli 16327; [13]) was 4 µg/mL. For the same compound, the “Antibiotic MIC” value (E. coli 16327; no polymer (None), Table 9) was 4 µg/mL, the “Antibiotic MIC” value (E. coli 16327; no polymer (None), Table 10) was 4 µg/mL and the “Antibiotic MIC” value (E. coli 16327; no polymer (None), Table 12) was 8 µg/mL. For the same compound, the “MIC, Alone” value (E. coli 16327; E. coli U16327, antibiotic alone (Table 22)) was 4 µg/mL, the “MIC, ¼ + MIC OAK” value (E. coli 16327; E. coli U16327, with C12K(KNC10K)3NH2 (SEQ ID NO: 10) at ¼ of its MIC) was 4 µg/mL and the “MIC, ½ + MIC OAK” value (E. coli 16327; E. coli U16327) was 2 to 4 µg/mL. The “MIC, ⅓ + MIC OAK” value (E. coli 16327; E. coli U16327) was 4 µg/mL, the “Antibiotic MIC, None” value (E. coli 16327; E. coli U-16327, antibiotic alone (Table 15)) was 4 µg/mL and the “Antibiotic MIC in presence of C12K(NC8K)7NH2 (SEQ ID NO: 4), +¼ MIC” value (E. coli 16327; E. coli U-16327, polymer at ¼ of its MIC) was 4 µg/mL. For the same compound, the “Antibiotic MIC … (SEQ ID NO: 4), +½ MIC” value (E. coli 16327; E. coli U-16327) was 1 to 2 µg/mL and the “Antibiotic MIC in presence of C12K(NC8K)7NH2 (SEQ ID NO: 4), +⅓ MIC” value (E. coli 16327; E. coli U-16327, polymer at ⅓ of its MIC) was 2 µg/mL.
